Earlier results as cited in patent publication US11826492B2, “Intratumoral drug delivery materials and methods for treating breast cancer” (BIOTRONIK AG, priority 2016, dated 2023).
Like-named read-outs stand apart in the source and are kept apart here.

Settings: Porcine Coronary Arteries

| SMILES | Normalized Uptake (ng drug/mg tissue/μg drug on balloon) (3 days) | Normalized Uptake (ng drug/mg tissue/μg drug on balloon) (7 days) |
| --- | --- | --- |
| CO[C@H]1C[C@@H]2CC[C@@H](C)[C@@](O)(O2)C(=O)C(=O)N2CCCC[C@H]2C(=O)O[C@H]([C@H](C)C[C@@H]2CC[C@@H](OCCO)[C@H](OC)C2)CC(=O)[C@H](C)/C=C(\C)[C@@H](O)[C@@H](OC)C(=O)[C@H](C)C[C@H](C)/C=C/C=C/C=C/1C [US 2014/0046254 Everolimus, Everolimus] | 0.02 ng/mg/µg | – |
| CO[C@H]1C[C@@H]2CC[C@@H](C)[C@@](O)(O2)C(=O)C(=O)N2CCCC[C@H]2C(=O)O[C@H]([C@H](C)C[C@@H]2CC[C@H](n3cnnn3)[C@H](OC)C2)CC(=O)[C@H](C)/C=C(\C)[C@@H](O)[C@@H](OC)C(=O)[C@H](C)C[C@H](C)/C=C/C=C/C=C/1C [US 2014/0046254 Zotarolimus, Zotarolimus] | – | 0.04 ng/mg/µg |
